Results reported in patent US5470737A, “Stably-transformed cells expressing human thiopurine methyltransferase” (priority 1994, dated 1995).
Entries after “also recorded” stand apart in the source; their conditions may differ.

Assays:
TPMT = conditions: cited from earlier work
human liver TPMT [1] = conditions: read-out: Apparent Km value for 6-MP; cited from earlier work
human kidney TPMT [2] = molecular target: T1, human kidney TPMT (Homo sapiens, UniProt P51580); conditions: read-out: Apparent Km value for 6-MP; cited from earlier work
T1 construct: to assay the enzyme in human kidney preparations; host or cells: human kidney
T1 sequence (P51580 1-245): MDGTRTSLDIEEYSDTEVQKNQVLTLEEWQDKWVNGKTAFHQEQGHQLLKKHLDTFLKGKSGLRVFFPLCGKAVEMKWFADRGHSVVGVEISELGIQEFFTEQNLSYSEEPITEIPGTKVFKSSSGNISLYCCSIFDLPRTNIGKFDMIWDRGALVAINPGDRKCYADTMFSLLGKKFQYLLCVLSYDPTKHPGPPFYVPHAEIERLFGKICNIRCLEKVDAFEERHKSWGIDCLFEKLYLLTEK

[3] = system: patients with genetically low or undetectable RBC TPMT activity; conditions: patients lacking or with low TPMT activity; cited from earlier work
human kidney TPMT [4] = molecular target: T1, human kidney TPMT; assay: DMHBA inhibition of TPMT activity, human kidney; type: biochemical; conditions: DMHBA 0.01 μM to 10 mM
Experimental: (§1) The University of Wisconsin Genetics Computer Group software package was used to analyze sequence information and to make comparisons between the sequence of the TPMT cDNA clone and the sequences of other cloned proteins. The GenBank Genetics Sequence Data Bank and the EMBL Nucleotide Sequence Database were used to search for nucleotide homologies, whereas the Swiss-Prot Protein Sequence Database was used to search for protein structural homologies. IC50 values were calculated with the GraphPAD Inplot program (GraphPAD, San Diego, Calif.).
Renal tissue was obtained either during autopsy or from patients undergoing clinically indicated nephrectomies. Hepatic tissue was obtained from patients who underwent clinically indicated partial hepatectomies for the removal of primary or metastatic hepatic tumors. All tissue was obtained under guidelines approved by the Mayo Clinic Institutional Review Board. Macroscopically normal tissue was stored at -80° C., conditions under which TPMT activity is stable (C. L. Szumlanski et al., Pharmacogenetics, 2, 148 (1992); J. A. Van Loon et al., Drug Met. Disposit., 18, 632 (1990)). […]
TPMT activity in renal tissue was measured by the method of R. M. Weinshilboum et al., in Clin. Chim. […]

T84 cell TPMT = molecular target: T2, T84 cell TPMT (Homo sapiens, UniProt P51580); assay: DMHBA inhibition of TPMT activity, T84 cells; type: biochemical; conditions: DMHBA 0.01 μM to 10 mM
T2 construct: Cytosol from T84 cells did contain TPMT enzymatic activity; host or cells: T84 human colon carcinoma cells
T2 sequence (P51580 1-245): T1 sequence (P51580 1-245)
Experimental: as §1
(§2) TPMT activity in renal tissue was measured by the method of R. M. Weinshilboum et al., in Clin. Chim. Acta, 85, 323 (1978) as modified by L. C. Woodson et al., Biochem. Pharmacol., 32, 819 (1983) to assay the enzyme in human kidney preparations. […] Ado-Met as the methyl donor. Assay conditions for the measurement of TPMT in T84 human colon carcinoma cells and in COS-1 cells were identical with those used to measure the enzyme activity in human renal tissue. One unit of TPMT activity represented the formation of 1 nmol of 6-MMP per hr of incubation at 37° C.
T84 human colon carcinoma cells (American Type Culture Collection, Rockville, Md.) were grown to confluence in an equal volume mixture of Dulbecco's modified Eagle's medium (DMEM) and Ham's F12 media with 5% fetal calf serum. […]

human kidney TPMT [5] = molecular target: T1, human kidney TPMT; conditions: cited from earlier work
[6] = molecular target: T3, TPMT expressed in COS-1 cells transfected with T84 cell TPMT cDNA (Homo sapiens, UniProt P51580); assay: DMHBA inhibition of TPMT activity expressed in transfected COS-1 cells; type: biochemical; conditions: COS-1 cells transfected with cDNA clone; FIG. 6
T3 sequence (P51580 1-245): T1 sequence (P51580 1-245)
Experimental: as §1, §2
Simian COS-1 cells were then plated in 100-mm dishes at a density of 1.5-1.8×10^6 cells/dish in DMEM with 10% fetal calf serum, and were allowed to grow overnight. Three dishes of cells were used for each transfection. […]

human liver TPMT [7] = conditions: cited from earlier work

| SMILES | substrate for TPMT (in words) (TPMT) | Km (human liver TPMT [1]) [µM] | Km (human kidney TPMT [2]) [µM] | risk of myelosuppression (in words) [3] | IC50 (human kidney TPMT [4]) [µM] | IC50 (T84 cell TPMT) [µM] | inhibition of human kidney TPMT activity (in words) (human kidney TPMT [5]) | IC50 value, TPMT activity expressed in COS-1 cells (in words) [6] | inhibition of human liver TPMT activity (in words) (human liver TPMT [7]) | IC50 (human liver TPMT [7]; read-out: DMHBA IC50) [µM] |
| --- | --- | --- | --- | --- | --- | --- | --- | --- | --- | --- |
| Sc1ncnc2nc[nH]c12 [6-MP, 6-mercaptopurine] | substrates for TPMT | 580 | 300 | even more at risk for the occurrence of severe myelosuppression; also recorded: greatly increased risk for the development of life-threatening thiopurine-induced myelosuppression |  |  |  |  |  |  |
| COc1cc(C(=O)O)cc(O)c1OC [DMHBA, 3,4-dimethoxy-5-hydroxybenzoic acid] |  |  |  |  | 7.8 | 6.6 | known to be inhibited | nearly identical to that of the TPMT present in T84 cells | known to be inhibited | 8.5 |
